Data taken from EPA's CvTdb concentration-time database.
Values joined by “and” are separate entries in the source; they are usually repeats but may differ in a detail not shown here. Equal entries are not always repeated.

Tested on: rat
Test: concentration in blood after dosing; negative times count back from the end of exposure
Details: inhalation

CCC(C)(C)O [tertiary amyl alcohol]
dosed: tert-amyl methyl ether, duration: 6 hr, male, F344 (Charles River)
Details | concentration in blood [ng/mL]
0.1349 h, 100 ppm | 3120
0.1606 h, 500 ppm | 18700
0.161 h, 100 ppm | 2610
0.1742 h, 500 ppm | 28700
0.1776 h, 100 ppm | 4090
0.1793 h, 100 ppm | 3740
0.2114 h, 500 ppm | 25900
0.3273 h, 2500 ppm | 96000
0.3463 h, 2500 ppm | 119000
0.3468 h, 100 ppm | 3320
0.3507 h, 100 ppm | 2500
0.3521 h, 500 ppm | 18700
0.3559 h, 2500 ppm | 101000
0.358 h, 500 ppm | 33000
0.3593 h, 500 ppm | 32300
0.3685 h, 100 ppm | 3740
0.369 h, 100 ppm | 3620
0.3717 h, 500 ppm | 25500
0.8785 h, 2500 ppm | 113000
0.8797 h, 2500 ppm | 110000
0.8894 h, 2500 ppm | 91700
0.8908 h, 2500 ppm | 89100
0.9009 h, 100 ppm | 1190
0.9009 h, 500 ppm | 15400
0.9138 h, 500 ppm | 25900
0.9151 h, 500 ppm | 25100
0.9198 h, 100 ppm | 2180
0.9217 h, 500 ppm | 21500
0.9218 h, 100 ppm | 1760
1.789 h, 2500 ppm | 96800
1.799 h, 2500 ppm | 76700
1.823 h, 100 ppm | 1290
1.824 h, 2500 ppm | 89300
2.017 h, 500 ppm | 16200
2.018 h, 500 ppm | 15400
2.026 h, 500 ppm | 11400
3.851 h, 500 ppm | 8400
3.852 h, 500 ppm | 7720
3.858 h, 500 ppm | 4810
3.985 h, 2500 ppm | 61200
3.989 h, 2500 ppm | 52300
3.99 h, 2500 ppm | 49700
3.991 h, 2500 ppm | 48600
9.831 h, 2500 ppm | 3190
9.837 h, 500 ppm | 123
17.91 h, 500 ppm | 185
36 s, 100 ppm | 4500

dosed: tert-amyl methyl ether, duration: 6 hr, male, F344 (Charles River), during exposure
Details | concentration in blood
-112 s, 100 ppm | 3220 ng/mL
-97 s, 100 ppm | 2350 ng/mL
-51 s, 500 ppm | 27000 ng/mL
-36 s, 100 ppm | 3730 ng/mL
-27 s, 500 ppm | 23300 ng/mL
-5.969 h, 2500 ppm | 2030 ng/mL
-5.968 h, 2500 ppm | 298 ng/mL
-5.931 h, 100 ppm | 373 ng/mL
-5.788 h, 100 ppm | 269 ng/mL
-5.779 h, 500 ppm | 1540 ng/mL
-5.777 h, 500 ppm | 432 ng/mL
-5.722 h, 2500 ppm | 4830 ng/mL
-5.695 h, 100 ppm | 530 ng/mL
-5.662 h, 2500 ppm | 10000 ng/mL
-5.661 h, 2500 ppm | 6980 ng/mL
-5.626 h, 100 ppm | 895 ng/mL
-5.601 h, 100 ppm | 790 ng/mL
-5.589 h, 500 ppm | 2720 ng/mL
-5.079 h, 2500 ppm | 24900 ng/mL
-5.077 h, 2500 ppm | 21200 ng/mL
-5.075 h, 2500 ppm | 17100 ng/mL
-5.019 h, 500 ppm | 5250 ng/mL
-5.017 h, 500 ppm | 4200 ng/mL
-5.015 h, 100 ppm | 1710 ng/mL
-5.013 h, 100 ppm | 1350 ng/mL
-5.012 h, 100 ppm | 1200 ng/mL
-5.011 h, 100 ppm | 882 ng/mL
-4.072 h, 100 ppm | 2490 ng/mL
-4.07 h, 100 ppm | 2010 ng/mL
-4.069 h, 100 ppm | 1890 ng/mL and 1860 ng/mL
-3.994 h, 2500 ppm | 30900 ng/mL
-3.993 h, 2500 ppm | 29600 ng/mL
-3.992 h, 2500 ppm | 28500 ng/mL
-3.908 h, 500 ppm | 8890 ng/mL
-3.906 h, 500 ppm | 7410 ng/mL
-2.076 h, 500 ppm | 19600 ng/mL
-2.075 h, 500 ppm | 19000 ng/mL
-2.065 h, 100 ppm | 3210 ng/mL
-2.062 h, 100 ppm | 2590 ng/mL
-2.061 h, 100 ppm | 2340 ng/mL
-2.046 h, 100 ppm | 4250 ng/mL
-2.018 h, 2500 ppm | 59800 ng/mL
-2.017 h, 2500 ppm | 58900 ng/mL
-2 h, 2500 ppm | 84600 ng/mL
-1.996 h, 2500 ppm | 78100 ng/mL
-0.2032 h, 2500 ppm | 99500 ng/mL
-0.1979 h, 2500 ppm | 89100 ng/mL
-0.1701 h, 2500 ppm | 95600 ng/mL
-0.031 h, 500 ppm | 18700 ng/mL

CCC(C)(C)OC [tertiary amyl methyl ether]
dosed: tert-amyl methyl ether, duration: 6 hr, male, F344 (Charles River)
Details | concentration in blood
0.2936 h, 2500 ppm | 40100 ng/mL
0.2946 h, 2500 ppm | 38200 ng/mL
0.2952 h, 2500 ppm | 37100 ng/mL
0.4294 h, 100 ppm | 828 ng/mL
0.4521 h, 100 ppm | 1040 ng/mL
0.454 h, 100 ppm | 626 ng/mL
0.4709 h, 500 ppm | 5800 ng/mL
0.4728 h, 500 ppm | 4750 ng/mL
0.4735 h, 500 ppm | 4380 ng/mL
0.8269 h, 2500 ppm | 31500 ng/mL
0.8277 h, 2500 ppm | 30000 ng/mL
0.8285 h, 2500 ppm | 28500 ng/mL
0.8324 h, 2500 ppm | 20900 ng/mL
0.9984 h, 100 ppm | 528 ng/mL
0.9987 h, 100 ppm | 470 ng/mL
0.9992 h, 100 ppm | 366 ng/mL
1.018 h, 500 ppm | 3640 ng/mL and 3270 ng/mL
1.021 h, 500 ppm | 1850 ng/mL
1.733 h, 100 ppm | 268 ng/mL
1.755 h, 100 ppm | 523 ng/mL
1.756 h, 100 ppm | 418 ng/mL
1.756 h, 500 ppm | 1480 ng/mL
1.757 h, 500 ppm | 741 ng/mL
1.926 h, 2500 ppm | 12000 ng/mL
1.927 h, 2500 ppm | 9450 ng/mL
1.928 h, 2500 ppm | 6650 ng/mL
3.92 h, 2500 ppm | 4450 ng/mL
3.921 h, 2500 ppm | 2070 ng/mL
3.993 h, 500 ppm | 370 ng/mL
9.964 h, 500 ppm | 61.7 ng/mL
17.98 h, 2500 ppm | 42 ng/mL
176 s, 100 ppm | 1240 ng/mL
260 s, 100 ppm | 1350 ng/mL
269 s, 100 ppm | 782 ng/mL
284 s, 500 ppm | 10600 ng/mL
292 s, 500 ppm | 9510 ng/mL
299 s, 500 ppm | 8400 ng/mL
309 s, 500 ppm | 6910 ng/mL

dosed: tert-amyl methyl ether, duration: 6 hr, male, F344 (Charles River), during exposure
Details | concentration in blood
-254 s, 2500 ppm | 82700 ng/mL
-248 s, 2500 ppm | 79200 ng/mL
-228 s, 500 ppm | 18600 ng/mL
-5.888 h, 2500 ppm | 24900 ng/mL
-5.887 h, 100 ppm | 1060 ng/mL
-5.887 h, 2500 ppm | 22400 ng/mL
-5.886 h, 2500 ppm | 20000 ng/mL
-5.884 h, 2500 ppm | 17200 ng/mL
-5.883 h, 2500 ppm | 14400 ng/mL
-5.878 h, 500 ppm | 2960 ng/mL
-5.864 h, 100 ppm | 1190 ng/mL
-5.863 h, 100 ppm | 1130 ng/mL
-5.858 h, 2500 ppm | 27500 ng/mL
-5.853 h, 500 ppm | 6980 ng/mL
-5.85 h, 500 ppm | 5560 ng/mL
-5.848 h, 500 ppm | 4010 ng/mL
-5.841 h, 100 ppm | 1460 ng/mL
-5.522 h, 2500 ppm | 37700 ng/mL
-5.521 h, 2500 ppm | 36200 ng/mL
-5.494 h, 2500 ppm | 44100 ng/mL
-5.492 h, 2500 ppm | 41100 ng/mL
-5.475 h, 500 ppm | 9570 ng/mL
-5.474 h, 500 ppm | 9200 ng/mL
-5.464 h, 100 ppm | 1660 ng/mL and 1610 ng/mL
-5.442 h, 100 ppm | 2030 ng/mL
-5.158 h, 2500 ppm | 56700 ng/mL
-5.157 h, 2500 ppm | 55100 ng/mL
-5.131 h, 2500 ppm | 64200 ng/mL
-5.129 h, 2500 ppm | 60300 ng/mL
-5.111 h, 100 ppm | 2080 ng/mL
-5.109 h, 100 ppm | 1560 ng/mL
-5.099 h, 500 ppm | 13500 ng/mL
-5.093 h, 500 ppm | 10600 ng/mL
-5.092 h, 100 ppm | 3060 ng/mL
-5.089 h, 100 ppm | 2490 ng/mL
-4.169 h, 100 ppm | 2960 ng/mL
-4.167 h, 100 ppm | 2490 ng/mL
-4.165 h, 100 ppm | 2180 ng/mL
-4.07 h, 100 ppm | 1980 ng/mL
-4.067 h, 2500 ppm | 51500 ng/mL
-4.046 h, 2500 ppm | 72000 ng/mL
-4.045 h, 2500 ppm | 69400 ng/mL
-4.044 h, 2500 ppm | 66600 ng/mL
-4.016 h, 500 ppm | 15000 ng/mL
-3.979 h, 500 ppm | 12000 ng/mL
-2.249 h, 2500 ppm | 85700 ng/mL
-2.248 h, 2500 ppm | 83400 ng/mL
-1.978 h, 500 ppm | 17800 ng/mL
-1.975 h, 500 ppm | 16400 ng/mL
-1.969 h, 100 ppm | 2860 ng/mL
-1.968 h, 100 ppm | 2600 ng/mL
-1.948 h, 100 ppm | 3320 ng/mL
-1.945 h, 100 ppm | 2760 ng/mL
-0.1231 h, 500 ppm | 16400 ng/mL
-0.1186 h, 500 ppm | 13900 ng/mL
-0.1052 h, 2500 ppm | 89600 ng/mL
-0.1033 h, 100 ppm | 3440 ng/mL
-0.1027 h, 100 ppm | 3320 ng/mL
-0.1027 h, 2500 ppm | 84600 ng/mL
-0.1008 h, 100 ppm | 2910 ng/mL

ClC=C(Cl)Cl [trichloroethylene]
dosed: trichloroethylene, duration: 4 hr
Details | concentration in blood [ng/mL]
-3.5 h, 600 ppm, female, F344, during exposure | 16800
-3.459 h, 600.4 ppm, female, F344, during exposure | 16200
-0.4732 h, 600.4 ppm, female, F344, during exposure | 29000
0.203 h, 50 ppm, male, Sprague Dawley | 936
0.2286 h, 50 ppm, male, Sprague Dawley | 807
0.2287 h, 50 ppm, male, Sprague Dawley | 1080
0.2341 h, 50 ppm, male, Sprague Dawley | 1130
0.2372 h, 600 ppm, female, F344 | 21800
0.2627 h, 600.4 ppm, female, F344 | 18800
0.4545 h, 50 ppm, male, Sprague Dawley | 1170
0.477 h, 50 ppm, male, Sprague Dawley | 624
0.4781 h, 50 ppm, male, Sprague Dawley | 461
0.4921 h, 50 ppm, male, Sprague Dawley | 758
0.4935 h, 600 ppm, female, F344 | 16100
0.5358 h, 600.4 ppm, female, F344 | 13400
0.9773 h, 600 ppm, female, F344 | 4980
0.9775 h, 50 ppm, male, Sprague Dawley | 548
0.9966 h, 50 ppm, male, Sprague Dawley | 412
1.025 h, 600.4 ppm, female, F344 | 8560
1.027 h, 50 ppm, male, Sprague Dawley | 319
1.739 h, 600 ppm, female, F344 | 2970
1.944 h, 50 ppm, male, Sprague Dawley | 181
1.987 h, 50 ppm, male, Sprague Dawley | 389
2.009 h, 50 ppm, male, Sprague Dawley | 301
2.054 h, 600.4 ppm, female, F344 | 3600
4.006 h, 50 ppm, male, Sprague Dawley | 217
4.049 h, 50 ppm, male, Sprague Dawley | 207
250 s, 600 ppm, female, F344 | 24700

dosed: trichloroethylene, 50 ppm, duration: 4 hr, male, Sprague Dawley, during exposure
Details | concentration in blood [ng/mL]
-313 s | 1440
-72 s | 1050
-67 s | 1720
-14 s | 2070
-3.578 h | 917
-3.528 h | 611
-3.504 h | 680
-3.419 h | 998
-3.27 h | 824
-3.051 h | 1330
-3.011 h | 745
-3.008 h | 1370
-2.984 h | 1290
-2.064 h | 1650
-2.027 h | 1110
-2.007 h | 1380
-1.985 h | 1950
-1.07 h | 1850
-1.031 h | 1920
-1.023 h | 1010
-1.012 h | 1700
